Experimental findings from patent US7807678B2, “Peptidomimetics of biologically active metallopeptides” (Palatin Technologies, Inc., priority 2001, dated 2010) are described below.

Assay [1] concerns the target T1, MC3-R (Homo sapiens, UniProt P41968). Description: Competitive inhibition binding assay, 125I-NDP-α-MSH, MC3-R. To be noted: for Inhibition at 1 μM MC3-R: 1 μM compound, inhibition of 125I-NDP-α-MSH binding, mean of triplicates, results less than 0% reported as 0%. More on the design: expressed in transfected cells. In outline: (§1)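 Membranes from hMC3-R, hMC4-R or hMC5-R cells, or B-16 mouse melanoma cells (MC1-R), were incubated 90 min at room temperature with 0.4 nM 125I-NDP-α-MSH in HEPES pH 7.2 with Mg2+/Ca2+/K+, and test compound generally at 1 μM. Filter-bound radioactivity was gamma counted. Specific binding was defined with 1 μM α-MSH; triplicate means.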

The target in assay [2] is T2, MC4-R (Homo sapiens, UniProt P32245). Description: Competitive inhibition binding assay, 125I-NDP-α-MSH, MC4-R. Details: expressed in transfected cells. The settings on record: for Inhibition at 1 μM MC4-R: 1 μM compound, inhibition of 125I-NDP-α-MSH binding, mean of triplicates, results less than 0% reported as 0%. In outline: as §1
T2 sequence (P32245 whole entry): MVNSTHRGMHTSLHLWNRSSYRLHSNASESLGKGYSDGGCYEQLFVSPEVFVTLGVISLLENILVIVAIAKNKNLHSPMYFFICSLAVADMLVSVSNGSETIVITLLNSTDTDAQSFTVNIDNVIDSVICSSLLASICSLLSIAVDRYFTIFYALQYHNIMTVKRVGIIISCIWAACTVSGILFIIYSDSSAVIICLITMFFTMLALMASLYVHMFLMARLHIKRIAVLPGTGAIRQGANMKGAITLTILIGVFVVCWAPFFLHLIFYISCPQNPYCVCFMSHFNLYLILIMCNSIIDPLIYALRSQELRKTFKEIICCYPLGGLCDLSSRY
The target in assay [3] is T3, MC5-R (Homo sapiens, UniProt P33032). Description: Competitive inhibition binding assay, 125I-NDP-α-MSH, MC5-R. More on the design: expressed in transfected cells. To be noted: for Inhibition at 1 μM MC5-R: 1 μM compound, inhibition of 125I-NDP-α-MSH binding, mean of triplicates, results less than 0% reported as 0%. Put shortly: as §1
T3 sequence (P33032 whole entry): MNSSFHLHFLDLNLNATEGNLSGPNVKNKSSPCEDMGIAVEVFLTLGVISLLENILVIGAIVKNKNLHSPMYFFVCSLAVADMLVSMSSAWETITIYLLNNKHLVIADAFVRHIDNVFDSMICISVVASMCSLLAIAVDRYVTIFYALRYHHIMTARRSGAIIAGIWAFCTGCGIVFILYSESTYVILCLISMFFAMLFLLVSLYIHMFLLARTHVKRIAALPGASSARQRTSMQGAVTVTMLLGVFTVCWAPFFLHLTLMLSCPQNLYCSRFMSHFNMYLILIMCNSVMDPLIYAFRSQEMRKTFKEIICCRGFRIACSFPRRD
Assay [4] has as its target T4, MC1-R (B-16 mouse melanoma cells) (Mus musculus, UniProt Q01727).
T4 construct: B-16 mouse melanoma cells (containing MC1-R); endogenous in cells; host or cells: B-16 mouse melanoma cells
Description: Competitive inhibition binding assay, 125I-NDP-α-MSH, MC1-R. To be noted: 1 μM compound; inhibition of 125I-NDP-α-MSH binding; mean of triplicates; results less than 0% reported as 0%. In outline: as §1

Assay [5] addresses T2, MC4-R. Description: Ki determination by the method of Example 4, MC4-R. The format is binding. Details: expressed in transfected cells; host or cells: HEK-293. The method, then: (§2) The Ki (nM) of certain peptidomimetics were determined, as was the agonist/antagonist status with respect to MC4-R, Functional evaluation of compounds at melanocortin receptors was performed by measuring the accumulation of intracellular cAMP in HEK-293 cells expressing MC3-R, MC4-R or MC5-R, and in B-16 mouse melanoma cells (containing MC1-R). Antagonistic activity was determined by measuring the inhibition of α-MSH-induced cAMP levels following exposure to the compounds. Cells, suspended in Earle's Balanced Salt Solution containing 10 mM HEPES, pH 7.5, 5 mM MgCl2, 1 mM glutamine, 0.1% albumin and 0.6 mM 3-isobutyl-1-methyl-xanthine, a phosphodiesterase inhibitor, were plated in 96 well plates at a density of 0.5×10^5 cells per well. Cells were incubated with the test compounds in the presence or absence of α-MSH for 1 hour at 37° C. cAMP levels were measured by EIA (Amersham) in the cell lysates. Data analysis and EC50 values were determined using nonlinear regression analysis with Prism Graph-Pad software.

Assay [6] concerns the target T3, MC5-R. Description: Ki determination by the method of Example 4, MC5-R. Format: binding. Details: expressed in transfected cells; host or cells: HEK-293. How it is done: as §2
In another assay the target is T5, MC4-R (HEK-293 cells) (Homo sapiens, UniProt P32245).
T5 construct: expressed in transfected cells; host or cells: HEK-293
T5 sequence (P32245 whole entry): as the sequence (P32245 whole entry) above
Description: cAMP assay for agonist/antagonist status, MC4-R. The format is cell-based. The method, then:
as §2

The target of assay [7] is T4, MC1-R (B-16 mouse melanoma cells). Description: Ki determination by the method of Example 4, MC1-R. Format: binding. The method, then: as §2
The target in assay [8] is T1, MC3-R. Description: Ki determination by the method of Example 4, MC3-R. The format is binding. Details: expressed in transfected cells; host or cells: HEK-293. The method, then:
as §2

Assay [9] concerns the target T4, MC1-R (B-16 mouse melanoma cells). Description: cAMP assay for agonist/antagonist status, MC1-R. Format: cell-based. The method, then:
as §2
In general terms: cAMP levels reflect the balance of adenylyl cyclase and phosphodiesterase activity.

In the next assay the target is T6, MC5-R (HEK-293 cells) (Homo sapiens, UniProt P33032).
T6 construct: expressed in transfected cells; host or cells: HEK-293
T6 sequence (P33032 whole entry): as the sequence (P33032 whole entry) above
Description: cAMP assay for agonist/antagonist status, MC5-R. The format is cell-based. How it is done: as §2

Setting [10] is: bound in μM, read-out: Ki MC1-R.
Where [11] appears, read: bound in μM, read-out: Ki MC3-R.
The mark [12] stands for this setting: bound in μM, read-out: Ki MC4-R.
[13] abbreviates: bound in μM, read-out: Ki MC5-R.

Read-outs that look alike come from different tables or passages of the source. Non-standard residues stand in square brackets, D forms with d. Residues, ends and D or L forms follow the SMILES beside them. *: point of attachment. Hyp = O=C(O)[CH]1C[CH](O)CN1; Nle = CCCC[CH](N)C(=O)O; NH(CH2)3NH2 = NCCCN*; Bn = c1ccc(C*)cc1

T4 sequence (Q01727 whole entry): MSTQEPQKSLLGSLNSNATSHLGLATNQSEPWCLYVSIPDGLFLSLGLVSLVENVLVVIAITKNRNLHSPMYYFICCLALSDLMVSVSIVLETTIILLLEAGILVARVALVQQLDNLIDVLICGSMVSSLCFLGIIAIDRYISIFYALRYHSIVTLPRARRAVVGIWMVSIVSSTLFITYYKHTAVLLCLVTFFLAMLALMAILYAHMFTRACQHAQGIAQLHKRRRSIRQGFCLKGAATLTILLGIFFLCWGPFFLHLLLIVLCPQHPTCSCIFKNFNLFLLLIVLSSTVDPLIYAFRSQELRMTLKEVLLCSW
T1 sequence (P41968 whole entry): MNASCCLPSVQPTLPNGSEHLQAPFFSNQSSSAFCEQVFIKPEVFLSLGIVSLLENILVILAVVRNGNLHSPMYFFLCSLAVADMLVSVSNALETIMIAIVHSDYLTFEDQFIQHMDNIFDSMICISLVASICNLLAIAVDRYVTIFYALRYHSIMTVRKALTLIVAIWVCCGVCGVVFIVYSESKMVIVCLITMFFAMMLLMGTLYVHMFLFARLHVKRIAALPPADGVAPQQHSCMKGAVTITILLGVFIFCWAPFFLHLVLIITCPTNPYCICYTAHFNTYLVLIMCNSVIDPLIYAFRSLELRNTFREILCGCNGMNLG

As to `N=C(N)NCCC[C@H]1C(=O)N2C(CC[C@@H]2COc2ccc3ccccc3c2)N1C(=O)[C@@H](Cc1ccccc1Cl)NC(=O)[C@@H]1C[C@@H](OCc2ccccc2)CN1` (stereo partly shown) [Example 100], the Inhibition (usually the drop in the measured response relative to a control, in per cent) at 1 μM MC3-R on MC3-R [1] was found to be 40%. In addition, on MC4-R [2], the “Inhibition at 1 μM MC4-R” value was found to be 95%. On MC5-R [3], the “Inhibition at 1 μM MC5-R” value was 93%. Also, in assay [4], the “Inhibition at 1 μM MC1-R” value is 54%. The inhibitory constant (Ki) (in general, the dissociation constant of the complex between target and ligand, obtained from inhibition or displacement) at MC4-R [5] (read-out: Ki (nM) MC4-R) turned out to be 42 nM; on MC5-R [6] (read-out: Ki (nM) MC5-R), 284 nM; in assay [7] (read-out: Ki (nM) MC1-R), 244 nM; on MC3-R [8] (read-out: Ki (nM) MC3-R), 854 nM. The “agonist/antagonist status as to MC4-R” value on MC4-R (HEK-293 cells) is on record as “agonist”. In addition, the “agonist/antagonist status as to MC1-R” value in assay [9] is “agonist”.
Regarding `N=C(N)NCCC[C@H]1C(=O)N2C(CC[C@@H]2COc2ccc3ccccc3c2)N1C(=O)[C@@H](Cc1ccc(Cl)cc1Cl)NC(=O)[C@@H]1C[C@@H](OCc2ccccc2)CN1` (stereo partly shown) [Example 113], the “Inhibition at 1 μM MC3-R” value on MC3-R [1] is 84%. At MC4-R [2], the “Inhibition at 1 μM MC4-R” value was found to be 100%. For the same compound, the “Inhibition at 1 μM MC5-R” value at MC5-R [3] was 100%. In assay [4], the “Inhibition at 1 μM MC1-R” value was found to be 53%. Moreover, the “agonist/antagonist status as to MC4-R” value at MC4-R (HEK-293 cells) is listed as “antagonist”. The “agonist/antagonist status as to MC5-R” value on MC5-R (HEK-293 cells) is reported as “agonist”. Also, the “agonist/antagonist status as to MC1-R” value in assay [9] was “agonist”.
Take `N=C(N)NCCC[C@H]1C(=O)N2C(CC[C@@H]2COc2ccc3ccccc3c2)N1C(=O)[C@@H](Cc1ccc(Cl)cc1Cl)NC(=O)[C@@H](N)COCc1ccccc1` (stereo partly shown) [Example 114]: the “Inhibition at 1 μM MC3-R” value on MC3-R [1] is given as 77%. For the same compound, the “Inhibition at 1 μM MC4-R” value at MC4-R [2] is 100%. Further, the “Inhibition at 1 μM MC5-R” value on MC5-R [3] was 94%. Besides, the “Inhibition at 1 μM MC1-R” value in [4] is 53%. Moreover, the “agonist/antagonist status as to MC4-R” value at MC4-R (HEK-293 cells) is given as “agonist”. Further, the “agonist/antagonist status as to MC5-R” value at MC5-R (HEK-293 cells) is given as “agonist”. The “agonist/antagonist status as to MC1-R” value in assay [9] is given as “agonist”.
Take `N=C(N)NCCC[C@H]1C(=O)N2C(CC[C@@H]2COc2ccc3ccccc3c2)N1C(=O)[C@@H](Cc1ccc(Cl)cc1Cl)NC(=O)[C@@H]1CC[C@H](c2ccccc2)N1` (stereo partly shown) [Example 115]: the inhibition (usually the relative decrease from the control value, in per cent) at 1 µM at MC3-R [1] was found to be 43%; at MC4-R [2] it was 97%; on MC5-R [3], 86%. The Ki was 12 nM at MC4-R [5] (read-out: Ki (nM) MC4-R), 99 nM at MC5-R [6] (read-out: Ki (nM) MC5-R), over 1000 nM in assay [7] (setting [10]) and over 1000 nM at MC3-R [8] (setting [11]).
In the case of `CCCCC(N)C(=O)NC(C)C(=O)NC(Cc1cnc[nH]1)C(=O)NC(Cc1ccccc1)C(=O)N1CC(OCc2ccccc2)CC1C(=O)NCCCN` (stereo not shown) [Example 134] (H-[Nle]AHF[Hyp](Bn)-{NH(CH2)3NH2}; configuration not given here), the Ki at MC4-R [5] (setting [12]), on MC5-R [6] (setting [13]) and at MC3-R [8] (setting [11]) was over 1000 nM throughout.
Regarding `NCCCNC(=O)C1CC(OCc2ccccc2)CN1C(=O)C(Cc1ccc(Cl)cc1)NC(=O)C1Cc2ccccc2CN1` (stereo not shown) [Example 145], the Ki (at MC4-R [5] (setting [12]); in assay [7] (setting [10]); on MC3-R [8] (setting [11])) was over 1000 nM throughout.
On to `NCCCNC(=O)[C@@H]1C[C@@H](OCc2ccccc2)CN1C(=O)[C@@H](Cc1ccc(Cl)cc1)NC(=O)[C@H]1Cc2ccccc2CN1` [Example 146], for which the Ki (at MC4-R [5] (setting [12]); at MC5-R [6] (setting [13]); in [7] (setting [10]); at MC3-R [8] (setting [11])) was over 1000 nM in each case.
In the case of `NCCCNC(=O)C1CC(OCc2ccccc2)CN1C(=O)C(Cc1ccccc1)NC(=O)C1Cc2ccccc2CN1` (stereo not shown) [Example 147], the Ki (on MC4-R [5] (setting [12]); on MC5-R [6] (setting [13]); in [7] (setting [10]); on MC3-R [8] (setting [11])) was over 1000 nM in each case.
As to `NCCCNC(=O)[C@@H]1C[C@@H](OCc2ccccc2)CN1C(=O)[C@@H](Cc1ccccc1)NC(=O)[C@H]1Cc2ccccc2CN1` [Example 148], the Ki (at MC4-R [5] (setting [12]); on MC5-R [6] (setting [13]); in assay [7] (setting [10]); on MC3-R [8] (setting [11])) was over 1000 nM each time.
Regarding `[2H]N[C@@H](Cc1cnc[nH]1)C(=O)N[C@@H](Cc1ccccc1)C(=O)N1C2CC[C@H](COc3ccc4ccccc4c3)N2C(=O)[C@@H]1CCCCN` (stereo partly shown) [Example 180], the Ki at MC4-R [5] (setting [12]) is over 1000 nM; at MC5-R [6] (setting [13]) it was over 1000 nM; in assay [7] (read-out: Ki (nM) MC1-R), 8 nM; at MC3-R [8] (setting [11]), over 1000 nM. Besides, the “agonist/antagonist status as to MC1-R” value is “agonist” in assay [9] and “potent MCR-1 agonist” in [9] (listed as Compound 2).
